Experimental data from ChEMBL document CHEMBL1156723, “Structure-activity relationship study on a novel series of cyclopentane-containing macrocyclic inhibitors of the hepatitis C virus NS3/4A protease leading to the discovery of TMC435350” (Bioorg Med Chem Lett, 2008).

Key:
[1] = Inhibition of recombinant full length HCV NS3/4A protease; set-up: species or system Hepacivirus hominis
[2] = Metabolic stability in human liver microsomes assessed as intrinsic clearance; type: ADME, Microsome
Hepatitis C virus = assay: Antiviral activity against HCV in human Huh7 cells assessed as luciferase activity; type: functional, organism-based, Hepacivirus hominis; conditions: Huh-7
Liver microsomes = assay: Metabolic stability in rat liver microsomes assessed as intrinsic clearance; type: ADME, Microsome
[3] = Bile excretion of compound in rat at 1 mg/kg, iv after 1 hr; type: ADME, organism-based; set-up: dose 1 mg/kg, route intravenous; conditions: read-out: Activity
[4] = Clearance in Sprague-Dawley rat at 2 mg/kg, iv; type: ADME, organism-based; set-up: dose 2 mg/kg, route intravenous; conditions: in vivo
[5] = Half life in Sprague-Dawley rat at 10 mg/kg, po; type: ADME, organism-based; set-up: dose 10 mg/kg, route oral; conditions: in vivo
[6] = AUC in Sprague-Dawley rat at 2 mg/kg, iv; type: ADME, organism-based; set-up: dose 2 mg/kg, route intravenous; conditions: plasma
[7] = Volume of distribution at steady state in Sprague-Dawley rat at 2 mg/kg, iv; type: ADME, organism-based; set-up: dose 2 mg/kg, route intravenous; conditions: in vivo, read-out: Vdss
[8] = Ratio of drug level in liver to plasma in Sprague-Dawley rat at 10 mg/kg, po after 8 hrs; type: ADME, organism-based; set-up: dose 10 mg/kg, route oral
[9] = Cmax in Sprague-Dawley rat at 10 mg/kg, po; type: ADME, organism-based; set-up: dose 10 mg/kg, route oral; conditions: in vivo
[10] = AUC in Sprague-Dawley rat at 10 mg/kg, po; type: ADME, organism-based; set-up: dose 10 mg/kg, route oral; conditions: plasma
[11] = Tmax in Sprague-Dawley rat at 10 mg/kg, po; type: ADME, organism-based; set-up: dose 10 mg/kg, route oral; conditions: in vivo
[12] = Oral bioavailability in Sprague-Dawley rat at 10 mg/kg, po; type: ADME, organism-based; conditions: in vivo
[13] = Ratio of drug level in liver to plasma in Sprague-Dawley rat at 2 mg/kg, iv after 8 hrs; type: ADME, organism-based; set-up: dose 2 mg/kg, route intravenous
[14] = Ratio of drug level in liver to plasma in Sprague-Dawley rat at 10 mg/kg, po after 6 hrs; type: ADME, organism-based; set-up: dose 10 mg/kg, route oral
[15] = Ratio of drug level in liver to plasma in Sprague-Dawley rat at 2 mg/kg, iv after 6 hrs; type: ADME, organism-based; set-up: dose 2 mg/kg, route intravenous

C=C[C@@H]1C[C@]1(NC(=O)[C@@H]1C[C@@H](Oc2cc(-c3ccccc3)nc3cc(OC)ccc23)C[C@H]1C(=O)N[C@H](C(=O)N[C@H](C(=O)NC)C1CCCCC1)C(C)(C)C)C(=O)O
Ki [1]: 22 nM

COc1ccc2c(O[C@@H]3C[C@H]4C(=O)N[C@]5(C(=O)NS(=O)(=O)C6CC6)C[C@H]5/C=C\CCCCN(C)C(=O)[C@@H]4C3)cc(-c3ccccc3)nc2c1
microsomal CLint [2]: 46 µL/min/mg
EC50 (Hepatitis C virus): 9 nM
clearance (Liver microsomes): 46 µL/min/mg
Ki [1]: 0.41 nM
dose excreted at 1 h [3]: 95%

COc1ccc2c(O[C@@H]3C[C@H]4C(=O)N[C@]5(C(=O)NS(=O)(=O)C6CC6)C[C@H]5/C=C\CCCCN(C)C(=O)[C@@H]4C3)cc(-n3ccc(C(C)C)n3)nc2c1C
clearance [4]: 41.7 mL/min/kg
half-life [5]: 2.2 h
AUC [6]: 1.05 µM·h
Vd [7]: 4.6 L/kg
microsomal CLint [2]: < 6 µL/min/mg
Kp at 8 h [8]: 44
EC50 (Hepatitis C virus): 9.7 nM
Cmax [9]: 310 nM
AUC [10]: 1.3 µM·h
Ki [1]: 0.16 nM
Tmax [11]: 1.5 h
bioavailability [12]: 25%
Kp at 8 h [13]: 23.5

COc1ccc2c(O[C@@H]3C[C@H]4C(=O)N[C@]5(C(=O)NS(=O)(=O)C6CC6)C[C@H]5/C=C\CCCCN(C)C(=O)[C@@H]4C3)cc(-c3nc(C(C)C)cs3)nc2c1F
EC50 (Hepatitis C virus): 57 nM
Ki [1]: 0.55 nM

COc1ccc2c(O[C@@H]3C[C@H]4C(=O)N[C@]5(C(=O)NS(=O)(=O)C6CC6)C[C@H]5/C=C\CCCCN(C)C(=O)[C@@H]4C3)cc(-c3nc(C(C)C)cs3)nc2c1
microsomal CLint [2]: 16 µL/min/mg
EC50 (Hepatitis C virus): 17 nM
Ki [1]: 0.84 nM

COc1ccc2c(O[C@@H]3C[C@H]4C(=O)N[C@]5(C(=O)NS(=O)(=O)C6CC6)C[C@H]5/C=C\CCCCN(C)C(=O)[C@@H]4C3)cc(-c3nc(C(C)C)cs3)nc2c1Cl
microsomal CLint [2]: 9 µL/min/mg
EC50 (Hepatitis C virus): 2.9 nM
Ki [1]: 0.1 nM

CCc1c(OC)ccc2c(O[C@@H]3C[C@H]4C(=O)N[C@]5(C(=O)NS(=O)(=O)C6CC6)C[C@H]5/C=C\CCCCN(C)C(=O)[C@@H]4C3)cc(-c3nc(C(C)C)cs3)nc12
EC50 (Hepatitis C virus): 66 nM
Ki [1]: 3.1 nM

COc1ccc2c(O[C@@H]3C[C@H]4C(=O)N[C@]5(C(=O)NS(=O)(=O)C6CC6)C[C@H]5/C=C\CCCCN(C)C(=O)[C@@H]4C3)cc(-c3nccs3)nc2c1
microsomal CLint [2]: 38 µL/min/mg
EC50 (Hepatitis C virus): 11 nM
Ki [1]: 0.2 nM

COc1ccc2c(O[C@@H]3C[C@H]4C(=O)N[C@]5(C(=O)NS(=O)(=O)C6CC6)C[C@H]5/C=C\CCCCN(C)C(=O)[C@@H]4C3)cc(-c3cccc(C(C)C)n3)nc2c1C
clearance [4]: 23.3 mL/min/kg
half-life [5]: 5.8 h
AUC [6]: 1.36 µM·h
Vd [7]: 0.7 L/kg
microsomal CLint [2]: < 6 µL/min/mg
EC50 (Hepatitis C virus): 6.8 nM
Cmax [9]: 300 nM
AUC [10]: 1.4 µM·h
Ki [1]: 0.3 nM
Tmax [11]: 2 h
bioavailability [12]: 31%

COc1ccc2c(O[C@@H]3C[C@H]4C(=O)N[C@]5(C(=O)NS(=O)(=O)C6CC6)C[C@H]5/C=C\CCCCN(C)C(=O)[C@@H]4C3)cc(-c3csc(NC(C)C)n3)nc2c1
microsomal CLint [2]: 15 µL/min/mg
EC50 (Hepatitis C virus): 17 nM
Ki [1]: 1.4 nM

COc1ccc2c(O[C@@H]3C[C@H]4C(=O)N[C@]5(C(=O)NS(=O)(=O)C6CC6)C[C@H]5/C=C\CCCCN(C)C(=O)[C@@H]4C3)cc(-c3nc(C(C)C)cs3)nc2c1C [SIMEPREVIR]
clearance [4]: 8.42 mL/min/kg
half-life [5]: 2.8 h
AUC [6]: 5.21 µM·h
Vd [7]: 0.49 L/kg
microsomal CLint [2]: < 6 µL/min/mg
EC50 (Hepatitis C virus): 7.8 nM
Kp at 6 h [14]: 32
Cmax [9]: 730 nM
Kp at 6 h [15]: 63.5
AUC [10]: 2.79 µM·h
Ki [1]: 0.36 nM
Tmax [11]: 3 h
bioavailability [12]: 11%
